Results taken from article PMC3214651 (Antiviral research, 2009).

Assays:
[1] = target: WNV protease (NS2b-NS3) (West Nile virus, UniProt Q9Q6P4); experiment: Protease assay; settings: 25 µM, control compound
[2] = target: WNV NTPase (NS3) (West Nile virus, UniProt Q9Q6P4); experiment: NTPase assay; assay type: biochemical; settings: 1 µM, control compound
[3] = tested on: WNV; settings: ref Zou et al., 2008; cited from earlier work

aprotinin
suppression of protease activity [1]: > 85%

Nc1nc2c(ncn2[C@@H]2O[C@H](COP(=O)(O)OP(=O)(O)OP(=O)(O)O)[C@@H](O)[C@H]2O)c(=O)[nH]1 [nonradioactive GTP, GTP]
suppression of NTPase activity [2]: > 85%

O[C@H]1[C@H]2c3cc4c(cc3CN3CCC(=C[C@@H]1O)[C@H]23)OCO4 [lycorine]
EC50 [3]: 230 nM | TI [3]: 104
